Molecules are shown by their SMILES.

The target in the first test is T1, human sEH (Homo sapiens, UniProt P34913).
T1 construct: made in house
T1 sequence (P34913 1-555): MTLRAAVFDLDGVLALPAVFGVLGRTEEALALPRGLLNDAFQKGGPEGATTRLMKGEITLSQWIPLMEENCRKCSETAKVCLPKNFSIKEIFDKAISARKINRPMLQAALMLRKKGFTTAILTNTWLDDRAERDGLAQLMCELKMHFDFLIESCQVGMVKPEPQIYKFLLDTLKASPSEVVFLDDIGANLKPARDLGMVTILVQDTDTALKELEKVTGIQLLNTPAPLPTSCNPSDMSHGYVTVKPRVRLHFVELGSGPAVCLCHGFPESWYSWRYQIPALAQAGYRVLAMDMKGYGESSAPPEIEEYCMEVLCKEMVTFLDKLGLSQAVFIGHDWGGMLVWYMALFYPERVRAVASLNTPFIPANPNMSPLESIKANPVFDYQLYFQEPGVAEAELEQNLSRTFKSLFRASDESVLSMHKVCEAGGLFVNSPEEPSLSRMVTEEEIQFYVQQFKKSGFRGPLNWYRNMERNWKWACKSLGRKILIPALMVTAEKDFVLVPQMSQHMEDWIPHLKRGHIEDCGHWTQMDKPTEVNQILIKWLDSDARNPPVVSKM
The experiment in a line: sEH inhibition, fluorescent assay with cyano(6-methoxy-naphthalen-2-yl)methyl trans-[(3-phenyloxiran-2-yl)methyl]carbonate as substrate. In kind it is biochemical.
Details: not given
Here is the method:
Recombinant mouse sEH and human sEH were produced in a baculovirus expression system and purified by affinity chromatography. […] Protein concentration was quantified by using the Pierce BCA assay using Fraction V bovine serum albumin as the calibrating standard.
Enzyme activity was measured by monitoring the appearance of 6-methoxy-2-naphthaldehyde. Assays were performed in triplicate. […] IC50 values were determined by regression of at least five datum points, with a minimum of two datum points in the linear region of the curve on either side of the IC50 values. The curve was generated from at least three separate runs, each in triplicate.
Usually IC50 stands for the point on the concentration scale where inhibition reaches its midpoint. Compound `O=C(NC1CCC(OC2CCCCC2)CC1)NC12CC3CC(CC(C3)C1)C2` (stereo not shown) [Compound 1097] had an IC50 of 10 ± 10 nM.

The same test, now with this note: 792 vs. 687; 1001, 1002 and 798 vs. the sulfonylamides.
`CCNC(=O)CCCCCCCCCCCNC(=O)NC12CC3CC(CC(C3)C1)C2` [Compound 792, 1-(1-Adamantyl)-3-(11-ethylaminocarbonylundecyl)urea]: the “fold decrease in inhibition potency on human sEH” value came out at 1.5 fold.

Staying with this test, now noted: Table 5; fluorescent-based assay, 0.96 nM human sEH, pH 7.0, [S] = 5 μM; read-out: Human sEH IC50.
With `CCNC(=O)CCCCCCCCCCCNC(=O)NC12CC3CC(CC(C3)C1)C2` [Compound 792, 1-(1-Adamantyl)-3-(11-ethylaminocarbonylundecyl)urea], the IC50 was determined as 4.3 nM.

The same test, now with this note: Table 18b; fluorescent assay with cyano(6-methoxy-naphthalen-2-yl)methyl trans-[(3-phenyloxiran-2-yl)methyl]carbonate as substrate; mean ± SD; read-out: IC50.
Consider `O=C(CC12CC3CC(CC(C3)C1)C2)Nc1ccc(O)cc1` [Compound 1454], for which the IC50 stood at 30 ± 10 nM.
Same read-out and setting: the figure for `O=C(CC12CC3CC(CC(C3)C1)C2)NC1CCC(O)CC1` (stereo not shown) [Compound 1063-1] is 50 ± 10 nM; for `CC(Oc1ccc(NC(=O)NC23CC4CC(CC(C4)C2)C3)cc1)C(=O)O` (stereo not shown) [Compound 1187] it is 10 ± 10 nM.
Same read-out and setting: under `O=C(NC1CCC(O)CC1)C12CC3CC(CC(C3)C1)C2` (stereo not shown) [Compound 1142] stands 10 ± 10 nM; under `CCCCCNC(=O)NCCOCc1ccc2ccccc2c1` [Compound 1116], 260 ± 10 nM; under `O=C(NC1CCC(OCc2ccccc2OC(F)(F)F)CC1)NC12CC3CC(CC(C3)C1)C2` (stereo not shown) [Compound 1144], 10 ± 10 nM.
`CC(=O)c1ccc(NC(=O)NC23CC4CC(CC(C4)C2)C3)cc1` [Compound 1217]: the IC50 amounted to 10 ± 10 nM.
The same measure, in the same setting: under `O=C(NCCCC(=O)OC(c1ccccc1)c1ccccc1)NC12CC3CC(CC(C3)C1)C2` [Compound 1164] stands 10 ± 10 nM.
The same measure, in the same setting: under `CC(=O)Oc1ccc(NC(=O)NC23CC4CC(CC(C4)C2)C3)cc1` [Compound 1220] stands 10 ± 10 nM.
Same read-out and setting: under `O=C(CCCCCCOCCCCCCc1ccccc1)NC12CC3CC(CC(C3)C1)C2` [Compound 1125] stands 10 ± 10 nM; under `CCOCCOCC(OC(=O)CCCNC(=O)NC12CC3CC(CC(C3)C1)C2)c1ccccc1` (stereo not shown) [Compound 1439], 10 ± 10 nM.
`O=C(Nc1ccc(C(F)(F)F)cc1)NC1CCC(Oc2ccc(F)cc2)CC1` (stereo not shown) [Compound 1517]: the IC50 was found to be 10 ± 10 nM.
Still for that read-out and setting: the figure for `O=C(NC1CCC(C(=O)O)CC1)NC12CC3CC(CC(C3)C1)C2` (stereo not shown) [Compound 1173] is 10 ± 10 nM; for `O=C(NC1CCCCC1)Oc1cccc(-c2ccccc2)c1` [Compound 1229] it is 920 ± 10 nM; for `CCOCCOCCOCCCCCNC(=O)NC1C2CC3CC(C2)CC1C3` (stereo not shown) [Compound 1128] it is 10 ± 10 nM.
Same read-out and setting: under `O=C(Nc1ccc(C(=O)O)cc1)NC12CC3CC(CC(C3)C1)C2` [Compound 1177] stands 10 ± 10 nM.
Same read-out and setting: the figure for `O=C(CCCCCCOCCCCc1ccccc1)NC12CC3CC(CC(C3)C1)C2` [Compound 1028] is 10 ± 10 nM.
`O=C(Nc1ccc(C(=O)c2ccccc2)cc1)NC12CC3CC(CC(C3)C1)C2` [Compound 1219]: the IC50 is 10 ± 10 nM.
As to `O=C(Nc1cccc(C(=O)c2ccccc2)c1)NC12CC3CC(CC(C3)C1)C2` [Compound 1218], the IC50 stood at 10 ± 10 nM.
The same measure, in the same setting: under `O=C(CCCCCNC(=O)NC12CC3CC(CC(C3)C1)C2)NC(C(=O)NC(C(=O)O)c1c[nH]c2ccccc12)c1ccccc1` (stereo not shown) [Compound 1084] stands 10 ± 10 nM; under `O=C(CC12CC3CC(CC(C3)C1)C2)NCCCCCOCCOCCOCc1ccccc1` [Compound 1063-2], 10 ± 10 nM.
Same read-out and setting: the figure for `O=C(CCCCCCOCCCCCc1ccccc1)NC12CC3CC(CC(C3)C1)C2` [Compound 1062] is 10 ± 10 nM; for `CC(C)(Oc1ccc(NC(=O)NC23CC4CC(CC(C4)C2)C3)cc1)C(=O)O` [Compound 1442] it is 150 ± 10 nM; for `CC(=O)Oc1cccc(NC(=O)NC23CC4CC(CC(C4)C2)C3)c1` [Compound 1193] it is 10 ± 10 nM.
`COCC(=O)c1ccc(OC2CCC(NC(=O)NC34CC5CC(CC(C5)C3)C4)CC2)cc1` (stereo not shown) [Compound 1469]: the IC50 was determined as 10 ± 10 nM.
Same read-out and setting: under `COCCCCCCCCNC(=O)NC12CC3CC(CC(C3)C1)C2` [Compound 1450] stands 10 ± 10 nM.
Same read-out and setting: under `CCOC(=O)C(C)Oc1ccc(NC(=O)NC23CC4CC(CC(C4)C2)C3)cc1` (stereo not shown) [Compound 1186] stands 10 ± 10 nM; under `O=C(O)CCCc1ccc(NC(=O)NC23CC4CC(CC(C4)C2)C3)cc1` [Compound 1224], 10 ± 10 nM.

The record behind these values is US8476043B2, “Inhibitors for the soluble epoxide hydrolase” (The Regents of the University of California, priority 2004, dated 2013).
